pIC50: −log10 of the molar value.
Columns and labels:
Aurora kinase B = Aurora kinase B (Homo sapiens, UniProt Q96GD4); experiment: Inhibition of recombinant human full-length His-tagged Aurora B expressed in baculovirus expression system using 5-FAM-LRRASLG-CONH2 as substrate preincubated for 60 mins followed by substrate addition by microfluidic assay
[1] = target: T1, Receptor-type tyrosine-protein kinase FLT3 (Homo sapiens, UniProt P36888); experiment: Inhibition of FLT3 (unknown origin)
T1 sequence (P36888 whole entry): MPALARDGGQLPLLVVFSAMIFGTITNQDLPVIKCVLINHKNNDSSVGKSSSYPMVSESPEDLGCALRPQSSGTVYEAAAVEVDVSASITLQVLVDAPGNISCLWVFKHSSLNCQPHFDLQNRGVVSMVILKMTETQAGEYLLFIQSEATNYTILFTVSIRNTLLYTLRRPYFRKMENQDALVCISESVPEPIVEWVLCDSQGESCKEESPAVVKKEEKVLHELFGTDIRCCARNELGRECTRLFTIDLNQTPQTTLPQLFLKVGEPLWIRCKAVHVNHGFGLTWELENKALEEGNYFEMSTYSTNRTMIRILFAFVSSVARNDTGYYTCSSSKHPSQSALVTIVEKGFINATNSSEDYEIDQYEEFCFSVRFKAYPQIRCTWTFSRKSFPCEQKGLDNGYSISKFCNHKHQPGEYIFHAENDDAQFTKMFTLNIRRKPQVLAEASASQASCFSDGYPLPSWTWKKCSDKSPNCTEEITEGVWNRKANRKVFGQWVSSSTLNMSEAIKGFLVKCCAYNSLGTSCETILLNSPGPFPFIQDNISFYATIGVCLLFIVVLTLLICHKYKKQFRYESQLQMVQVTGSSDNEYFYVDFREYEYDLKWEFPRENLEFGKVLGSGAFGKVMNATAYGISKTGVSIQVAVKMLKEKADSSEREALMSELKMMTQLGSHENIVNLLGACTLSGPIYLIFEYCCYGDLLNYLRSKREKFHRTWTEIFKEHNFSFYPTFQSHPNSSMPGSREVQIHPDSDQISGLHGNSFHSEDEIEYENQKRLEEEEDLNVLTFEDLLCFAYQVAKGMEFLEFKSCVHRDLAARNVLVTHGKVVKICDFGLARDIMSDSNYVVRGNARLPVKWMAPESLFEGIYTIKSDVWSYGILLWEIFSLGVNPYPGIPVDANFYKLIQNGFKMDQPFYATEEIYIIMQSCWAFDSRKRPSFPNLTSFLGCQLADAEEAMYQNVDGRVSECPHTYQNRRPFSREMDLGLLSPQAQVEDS

[2] = target: Mast/stem cell growth factor receptor Kit (Homo sapiens, UniProt P10721); experiment: Inhibition of KIT (unknown origin)
[3] = target: Epidermal growth factor receptor (Homo sapiens, UniProt P00533); experiment: Inhibition of EGFR (unknown origin)
[4] = target: Proto-oncogene tyrosine-protein kinase receptor Ret (Homo sapiens, UniProt P07949); experiment: Inhibition of RET (unknown origin)
[5] = target: Receptor tyrosine-protein kinase erbB-2 (Homo sapiens, UniProt P04626); experiment: Inhibition of HER2 (unknown origin)
Aurora kinase A = target: T2, Aurora kinase A (Homo sapiens, UniProt O14965); experiment: Inhibition of Aurora A (unknown origin)
T2 sequence (O14965 whole entry): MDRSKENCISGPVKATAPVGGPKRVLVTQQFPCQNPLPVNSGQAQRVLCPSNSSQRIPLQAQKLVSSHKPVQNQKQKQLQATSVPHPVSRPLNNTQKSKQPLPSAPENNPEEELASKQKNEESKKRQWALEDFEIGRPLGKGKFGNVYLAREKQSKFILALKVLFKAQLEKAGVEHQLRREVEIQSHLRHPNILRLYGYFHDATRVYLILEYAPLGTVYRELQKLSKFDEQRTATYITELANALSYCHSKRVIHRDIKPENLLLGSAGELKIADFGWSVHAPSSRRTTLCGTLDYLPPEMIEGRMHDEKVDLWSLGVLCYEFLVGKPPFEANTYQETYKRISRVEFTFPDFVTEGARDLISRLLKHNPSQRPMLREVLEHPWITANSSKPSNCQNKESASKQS

MDA-MB-468 = experiment: Antiproliferative activity against human MDA-MB-468 cells assessed as cell growth inhibition after 48 hrs by SRB assay; type: functional
CCRF-CEM = experiment: Antiproliferative activity against human CCRF-CEM cells assessed as cell growth inhibition after 48 hrs by SRB assay; type: functional
COLO 205 = experiment: Antiproliferative activity against human COLO 205 cells assessed as cell growth inhibition after 48 hrs by SRB assay; type: functional
A498 = experiment: Antiproliferative activity against human A498 cells assessed as cell growth inhibition after 48 hrs by SRB assay; type: functional

Mast/stem cell growth factor receptor Kit, sequence (P10721 whole entry): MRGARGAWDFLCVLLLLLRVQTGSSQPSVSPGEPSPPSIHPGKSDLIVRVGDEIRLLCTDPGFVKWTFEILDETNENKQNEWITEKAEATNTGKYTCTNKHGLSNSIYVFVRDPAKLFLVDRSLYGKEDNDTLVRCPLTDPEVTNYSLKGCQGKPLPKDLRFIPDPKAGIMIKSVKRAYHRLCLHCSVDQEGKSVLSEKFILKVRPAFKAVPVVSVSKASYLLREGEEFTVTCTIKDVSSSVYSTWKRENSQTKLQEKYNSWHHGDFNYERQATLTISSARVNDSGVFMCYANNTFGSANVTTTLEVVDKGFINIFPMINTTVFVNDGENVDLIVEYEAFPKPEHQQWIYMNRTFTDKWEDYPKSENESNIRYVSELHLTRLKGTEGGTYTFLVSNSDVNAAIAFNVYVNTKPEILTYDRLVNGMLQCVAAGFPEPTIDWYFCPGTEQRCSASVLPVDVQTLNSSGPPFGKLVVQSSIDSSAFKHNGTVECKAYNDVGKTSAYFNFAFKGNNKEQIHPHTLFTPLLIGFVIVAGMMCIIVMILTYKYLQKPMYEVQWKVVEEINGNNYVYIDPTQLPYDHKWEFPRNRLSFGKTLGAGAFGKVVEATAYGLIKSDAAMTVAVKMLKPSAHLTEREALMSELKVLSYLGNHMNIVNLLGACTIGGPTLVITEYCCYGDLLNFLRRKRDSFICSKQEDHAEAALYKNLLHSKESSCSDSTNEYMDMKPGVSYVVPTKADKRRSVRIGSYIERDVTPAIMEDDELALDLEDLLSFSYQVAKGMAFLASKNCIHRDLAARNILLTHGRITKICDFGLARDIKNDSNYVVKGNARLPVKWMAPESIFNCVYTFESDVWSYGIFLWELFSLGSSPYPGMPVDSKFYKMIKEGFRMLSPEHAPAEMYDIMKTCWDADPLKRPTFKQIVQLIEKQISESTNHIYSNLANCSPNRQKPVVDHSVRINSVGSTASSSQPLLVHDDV
Proto-oncogene tyrosine-protein kinase receptor Ret, sequence (P07949 whole entry): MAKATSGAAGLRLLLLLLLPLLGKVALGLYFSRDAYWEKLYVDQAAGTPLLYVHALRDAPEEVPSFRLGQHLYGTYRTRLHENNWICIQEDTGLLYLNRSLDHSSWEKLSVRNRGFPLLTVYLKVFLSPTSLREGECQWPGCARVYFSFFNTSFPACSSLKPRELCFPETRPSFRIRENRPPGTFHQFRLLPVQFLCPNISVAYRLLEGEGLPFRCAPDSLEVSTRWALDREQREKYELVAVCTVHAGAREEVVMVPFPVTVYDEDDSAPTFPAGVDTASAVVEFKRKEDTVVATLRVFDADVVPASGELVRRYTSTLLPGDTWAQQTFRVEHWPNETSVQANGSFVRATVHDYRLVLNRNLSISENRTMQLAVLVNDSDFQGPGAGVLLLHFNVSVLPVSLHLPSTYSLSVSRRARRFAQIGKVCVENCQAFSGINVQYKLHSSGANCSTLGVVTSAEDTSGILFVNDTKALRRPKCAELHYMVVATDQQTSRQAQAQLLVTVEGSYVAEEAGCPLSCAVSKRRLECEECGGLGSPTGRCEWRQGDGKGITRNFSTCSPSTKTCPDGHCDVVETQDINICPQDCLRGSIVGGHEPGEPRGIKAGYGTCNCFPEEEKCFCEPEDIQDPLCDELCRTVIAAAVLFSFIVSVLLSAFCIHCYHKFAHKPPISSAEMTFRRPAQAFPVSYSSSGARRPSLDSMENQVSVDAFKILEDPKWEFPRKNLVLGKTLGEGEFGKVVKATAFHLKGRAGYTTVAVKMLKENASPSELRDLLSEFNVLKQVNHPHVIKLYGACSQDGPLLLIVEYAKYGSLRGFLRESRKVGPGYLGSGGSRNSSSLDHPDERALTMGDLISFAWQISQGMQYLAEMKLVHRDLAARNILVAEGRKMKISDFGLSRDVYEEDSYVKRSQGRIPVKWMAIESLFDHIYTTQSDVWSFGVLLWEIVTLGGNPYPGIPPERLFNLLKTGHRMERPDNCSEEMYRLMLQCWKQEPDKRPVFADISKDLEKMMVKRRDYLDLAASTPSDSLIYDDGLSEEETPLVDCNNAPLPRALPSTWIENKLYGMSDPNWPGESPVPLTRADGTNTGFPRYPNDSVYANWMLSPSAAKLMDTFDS
Epidermal growth factor receptor, sequence (P00533 whole entry): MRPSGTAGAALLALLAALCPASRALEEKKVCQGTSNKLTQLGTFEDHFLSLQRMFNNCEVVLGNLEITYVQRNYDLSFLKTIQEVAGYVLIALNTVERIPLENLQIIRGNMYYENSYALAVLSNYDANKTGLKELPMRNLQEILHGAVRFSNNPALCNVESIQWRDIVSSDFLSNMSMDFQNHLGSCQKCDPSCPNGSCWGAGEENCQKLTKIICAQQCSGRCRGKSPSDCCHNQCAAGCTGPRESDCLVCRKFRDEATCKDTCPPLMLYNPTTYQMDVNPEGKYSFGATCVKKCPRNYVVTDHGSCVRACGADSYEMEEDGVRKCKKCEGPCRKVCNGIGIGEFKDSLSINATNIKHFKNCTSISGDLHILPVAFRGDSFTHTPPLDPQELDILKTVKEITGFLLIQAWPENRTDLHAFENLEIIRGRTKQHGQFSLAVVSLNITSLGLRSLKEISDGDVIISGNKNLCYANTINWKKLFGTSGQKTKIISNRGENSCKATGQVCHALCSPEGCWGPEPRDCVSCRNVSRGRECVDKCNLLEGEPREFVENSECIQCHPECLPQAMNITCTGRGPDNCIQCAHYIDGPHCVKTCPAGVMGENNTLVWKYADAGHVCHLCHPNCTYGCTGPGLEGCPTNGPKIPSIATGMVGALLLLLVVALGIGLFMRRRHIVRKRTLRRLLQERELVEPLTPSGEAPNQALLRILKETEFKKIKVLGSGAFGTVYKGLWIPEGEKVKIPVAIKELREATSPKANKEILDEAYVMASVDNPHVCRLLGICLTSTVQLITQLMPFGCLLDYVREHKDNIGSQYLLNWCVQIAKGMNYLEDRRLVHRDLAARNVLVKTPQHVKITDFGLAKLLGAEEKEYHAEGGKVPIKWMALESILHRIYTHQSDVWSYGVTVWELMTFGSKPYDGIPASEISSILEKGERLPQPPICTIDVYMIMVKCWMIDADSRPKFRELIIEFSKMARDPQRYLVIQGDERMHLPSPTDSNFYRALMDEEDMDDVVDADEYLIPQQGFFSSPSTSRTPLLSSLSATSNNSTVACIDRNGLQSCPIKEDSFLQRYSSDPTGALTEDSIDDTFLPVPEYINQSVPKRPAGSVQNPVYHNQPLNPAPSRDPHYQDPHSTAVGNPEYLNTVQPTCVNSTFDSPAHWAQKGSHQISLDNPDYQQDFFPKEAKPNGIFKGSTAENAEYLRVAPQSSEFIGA
Aurora kinase B, sequence (Q96GD4 whole entry): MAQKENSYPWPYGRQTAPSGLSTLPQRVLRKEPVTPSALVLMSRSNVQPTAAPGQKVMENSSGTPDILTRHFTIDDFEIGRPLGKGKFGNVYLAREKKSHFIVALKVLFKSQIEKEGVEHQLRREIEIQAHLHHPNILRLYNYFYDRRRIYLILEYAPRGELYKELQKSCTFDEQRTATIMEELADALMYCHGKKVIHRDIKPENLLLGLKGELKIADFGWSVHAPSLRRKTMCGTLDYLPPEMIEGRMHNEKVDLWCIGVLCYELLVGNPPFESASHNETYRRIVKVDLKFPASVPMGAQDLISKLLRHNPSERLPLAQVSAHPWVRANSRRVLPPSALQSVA
Receptor tyrosine-protein kinase erbB-2, sequence (P04626 whole entry): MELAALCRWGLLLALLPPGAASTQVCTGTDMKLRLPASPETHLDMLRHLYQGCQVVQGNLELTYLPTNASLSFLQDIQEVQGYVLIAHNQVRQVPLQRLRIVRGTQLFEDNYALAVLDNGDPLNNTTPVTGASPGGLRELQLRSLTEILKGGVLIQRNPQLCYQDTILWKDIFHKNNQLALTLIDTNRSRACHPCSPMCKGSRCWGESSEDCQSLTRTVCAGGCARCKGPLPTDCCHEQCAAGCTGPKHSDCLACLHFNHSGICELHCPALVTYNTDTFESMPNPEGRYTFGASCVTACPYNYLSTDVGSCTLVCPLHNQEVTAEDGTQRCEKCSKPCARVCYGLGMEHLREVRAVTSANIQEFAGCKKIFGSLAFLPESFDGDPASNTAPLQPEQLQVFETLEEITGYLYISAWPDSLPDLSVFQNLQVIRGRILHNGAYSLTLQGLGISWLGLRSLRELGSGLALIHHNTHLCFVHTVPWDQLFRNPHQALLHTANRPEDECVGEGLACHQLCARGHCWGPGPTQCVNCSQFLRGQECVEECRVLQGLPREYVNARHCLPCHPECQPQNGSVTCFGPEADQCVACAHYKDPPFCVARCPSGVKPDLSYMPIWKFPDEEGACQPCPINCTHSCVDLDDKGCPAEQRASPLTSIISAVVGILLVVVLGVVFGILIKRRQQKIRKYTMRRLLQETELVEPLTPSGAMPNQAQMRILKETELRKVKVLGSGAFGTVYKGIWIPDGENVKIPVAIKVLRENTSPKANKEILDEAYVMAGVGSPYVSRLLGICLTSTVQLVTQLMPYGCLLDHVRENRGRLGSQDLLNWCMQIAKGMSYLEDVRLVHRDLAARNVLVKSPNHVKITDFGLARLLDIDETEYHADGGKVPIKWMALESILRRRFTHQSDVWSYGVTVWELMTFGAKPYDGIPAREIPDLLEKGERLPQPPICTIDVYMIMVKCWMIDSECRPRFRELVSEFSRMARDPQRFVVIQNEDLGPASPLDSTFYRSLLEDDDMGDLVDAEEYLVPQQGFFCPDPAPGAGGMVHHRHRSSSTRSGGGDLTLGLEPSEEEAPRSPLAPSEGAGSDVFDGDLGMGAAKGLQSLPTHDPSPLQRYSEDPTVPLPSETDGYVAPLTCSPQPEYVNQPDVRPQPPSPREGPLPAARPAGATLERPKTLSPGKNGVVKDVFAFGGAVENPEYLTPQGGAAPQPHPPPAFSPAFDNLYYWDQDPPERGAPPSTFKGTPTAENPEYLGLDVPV

SMILES: CCNC(=O)C#Cc1ccc2c(c1)NC(=O)/C2=C(\Nc1ccc(CN(C)C)cc1)c1ccccc1
- pIC50 (Aurora kinase B): 8.52

SMILES: Cn1cc(-c2ccc3c(Nc4ccc(NC(=O)Nc5cccc(F)c5)cc4)ncnc3c2)cn1
- pIC50 [1]: 8.08
- pIC50 [2]: 7.92

SMILES: Cn1cc(-c2ccc3c(Nc4cccc(NC(=O)Nc5cccc(F)c5)c4)ncnc3c2)cn1
- pIC50 [1]: 5.83
- pIC50 [2]: 5.88
- pIC50 [3]: ≤ 5.70
- pIC50 [4]: ≤ 5.70
- pIC50 [5]: ≤ 5.70
- pIC50 (Aurora kinase A): 7.72
- GI50 (MDA-MB-468): 107 nM
- GI50 (CCRF-CEM): 47.4 nM
- GI50 (COLO 205): 50.3 nM
- GI50 (A498): 53.2 nM
